Test results as given in patent US20040110771A1, “7-(r)-aminotriazolopyrimidines, the production thereof and use of the same for combatting phytopathogenic fungi” (priority 2000, published 2004).

Columns and labels:
Format in all cases: in vivo
Pyrenophora teres = assay: Activity against net blotch of barley caused by Pyrenophora teres; conditions: barley seedlings "Igri", inoculated 24 h after spraying, 6 days
Method: (§1) The active compounds were prepared separately or jointly as a 10% strength emulsion in a mixture of 70% by weight of cyclohexanone, 20% by weight of Nekanil® LN (Lutensol® AP6, wetting agent having emulsifying and dispersing action based on ethoxylated alkylphenols) and 10% by weight of Wettol® EM (nonionic emulsifier based on ethoxylated castor oil) and diluted with water to the desired concentration.
Leaves of potted barley seedlings of the cultivar “Igri” were sprayed to runoff point with an aqueous preparation of active compound which had been prepared from a stock solution made of 10% of active compound, 85% of cyclohexanone and 5% of emulsifier and were inoculated 24 hours after the spray coating had dried on with an aqueous spore suspension of Pyrenophora teres, the net blotch pathogen. The test plants were then placed in a greenhouse at 20-24° C. and 95-100% relative atmospheric humidity. After 6 days, the extent of the development of the disease was determined visually in % infection of the entire leaf area.

Puccinia recondita = assay: Curative activity against brown rust of wheat caused by Puccinia recondita; conditions: curative spray 24 h after inoculation, wheat seedlings "Kanzler", 7 days
Method: as §1
Leaves of potted wheat seedlings of the cultivar “Kanzler” were dusted with spores of brown rust (Puccinia recondita). The pots were then placed in a chamber with high atmospheric humidity (90 to 95%) at 20-22° C. for 24 hours. During this period, the spores germinated and the germinal tubes penetrated into the leaf tissue. The following day, the infected plants were sprayed to runoff point with an aqueous preparation of active compound which had been prepared from a stock solution made of 10% of active compound, 85% of cyclohexanone and 5% of emulsifier. After the spray coating had dried on, the test plants were cultivated in a greenhouse at 20-22° C. and 65-70% relative atmospheric humidity for 7 days. The extent of the rust fungus development on the leaves was then determined.

[1] = system: Blumeria graminis forma specialis tritici; assay: Activity against mildew of wheat caused by Blumeria graminis forma specialis tritici; conditions: wheat seedlings "Kanzler", dusted with spores 24 h after spraying, 7 days
Method: as §1
Leaves of potted wheat seedlings of the cultivar “Kanzler” were sprayed to runoff point with an aqueous preparation of active compound which had been prepared from a stock solution made of 10% of active compound, 85% of cyclohexanone and 5% of emulsifier and were dusted 24 hours after the spray coating had dried on with spores of mildew of wheat (Blumeria graminis forma specialis tritici). The test plants were then placed in a greenhouse at 20-24° C. and 60-90% relative atmospheric humidity. After 7 days, the extent of the mildew development was determined visually in % infection of the entire leaf area.

| Structure (SMILES) | % infection of the leaves after application of an aqueous preparation comprising . . . ppm of active compound (Pyrenophora teres; 16 ppm) [%] | % infection of the leaves after application of an aqueous preparation comprising . . . ppm of active compound (Pyrenophora teres; 63 ppm) [%] | % infection of the leaves after application of an aqueous preparation comprising . . . ppm of active compound (Pyrenophora teres; 250 ppm) [%] | % infection of the leaves after application of an aqueous preparation comprising . . . ppm of active compound (Puccinia recondita; 16 ppm) [%] | % infection of the leaves after application of an aqueous preparation comprising . . . ppm of active compound (Puccinia recondita; 63 ppm) [%] | % infection of the leaves after application of an aqueous preparation comprising . . . ppm of active compound (Puccinia recondita; 250 ppm) [%] | % infection of the leaves after application of an aqueous preparation comprising . . . ppm of active compound ([1]; 16 ppm) [%] | % infection of the leaves after application of an aqueous preparation comprising . . . ppm of active compound ([1]; 63 ppm) [%] | % infection of the leaves after application of an aqueous preparation comprising . . . ppm of active compound ([1]; 250 ppm) [%] |
| --- | --- | --- | --- | --- | --- | --- | --- | --- | --- |
| Cc1cccc(F)c1-c1c(Cl)nc2ncnn2c1NC(C)C(C)C (single isomer, unassigned) [I.-11a] | 5 | 0 | 0 | 80 | 5 | 5 | 7 | 7 | 5 |
| Cc1cccc(F)c1-c1c(Cl)nc2ncnn2c1N[C@H](C)C(C)C (single isomer, unassigned) [I.-11b] | – | 15 | 0 | – | 20 | 5 | – | 30 | 30 |
| CC[C@@H](C)Nc1c(-c2c(F)cccc2Cl)c(Cl)nc2ncnn12 [I.-1] | 50 | 0 | – | 5 | 3 | 0 | – | – | – |
| CCC(C)Nc1c(-c2c(C)cccc2F)c(Cl)nc2ncnn12 (centres unmarked) [I.-10] | – | 3 | 3 | 60 | 40 | 15 | – | 60 | 15 |
| CC[C@@H](C)Nc1c(-c2c(F)cc(F)cc2F)c(Cl)nc2ncnn12 [I.-13] | 20 | – | – | 3 | 0 | – | 60 | 40 | – |
| CC[C@@H](C)Nc1c(-c2ccc(F)cc2C)c(Cl)nc2ncnn12 [I.-22] | 7 | 0 | – | 30 | 5 | 3 | 5 | 3 | 3 |
| Cc1cc(F)ccc1-c1c(Cl)nc2ncnn2c1NC(C)C(C)C (centres unmarked) [I.-23] | 0 | – | – | 3 | 0 | 0 | 15 | 5 | 3 |
| CCCC[C@@H](C)Nc1c(-c2c(F)cc(F)cc2F)c(Cl)nc2ncnn12 [I.-27] | 3 | 0 | 0 | – | – | 40 | – | – | – |
| COCC(C)Nc1c(-c2c(F)cc(F)cc2F)c(Cl)nc2ncnn12 (centres unmarked) [I.-32] | 5 | 0 | 0 | – | 70 | 15 | – | – | – |
| CC[C@H](C)Nc1c(-c2c(F)cccc2Cl)c(Cl)nc2ncnn12 [comparison (S)-amine of I.-1] | 100 | 20 | – | 60 | 20 | 15 | – | – | – |
| CC[C@H](C)Nc1c(-c2c(C)cccc2F)c(Cl)nc2ncnn12 [comparison (S)-amine of I.-10] | – | 100 | 40 | 100 | 100 | 100 | – | 100 | 100 |
| Cc1cccc(F)c1-c1c(Cl)nc2ncnn2c1NC(C)C(C)C [comparison (S)-amine of I.-11a] | 100 | 100 | 100 | 100 | 60 | 30 | 80 | 60 | 60 |
| Cc1cccc(F)c1-c1c(Cl)nc2ncnn2c1NC(C)C(C)C [comparison (S)-amine of I.-11b] | – | 100 | 100 | – | 100 | 100 | – | 60 | 60 |
| CCCC[C@H](C)Nc1c(-c2c(F)cc(F)cc2F)c(Cl)nc2ncnn12 [comparison (S)-amine of I.-27] | 100 | 90 | 7 | – | – | 100 | – | – | – |
| COC[C@H](C)Nc1c(-c2c(F)cc(F)cc2F)c(Cl)nc2ncnn12 [comparison (S)-amine of I.-32] | 90 | 80 | 30 | – | 100 | 80 | – | – | – |
